{
  "source": "paper PMC3188562",
  "about": "“Hyperforin Inhibits Akt1 Kinase Activity and Promotes Caspase-Mediated Apoptosis Involving Bad and Noxa Activation in Human Myeloid Tumor Cells” (PLoS ONE, 2011)",
  "biological_target": "Akt1 (Homo sapiens, UniProt P31749)",
  "sequence (P31749 whole entry)": "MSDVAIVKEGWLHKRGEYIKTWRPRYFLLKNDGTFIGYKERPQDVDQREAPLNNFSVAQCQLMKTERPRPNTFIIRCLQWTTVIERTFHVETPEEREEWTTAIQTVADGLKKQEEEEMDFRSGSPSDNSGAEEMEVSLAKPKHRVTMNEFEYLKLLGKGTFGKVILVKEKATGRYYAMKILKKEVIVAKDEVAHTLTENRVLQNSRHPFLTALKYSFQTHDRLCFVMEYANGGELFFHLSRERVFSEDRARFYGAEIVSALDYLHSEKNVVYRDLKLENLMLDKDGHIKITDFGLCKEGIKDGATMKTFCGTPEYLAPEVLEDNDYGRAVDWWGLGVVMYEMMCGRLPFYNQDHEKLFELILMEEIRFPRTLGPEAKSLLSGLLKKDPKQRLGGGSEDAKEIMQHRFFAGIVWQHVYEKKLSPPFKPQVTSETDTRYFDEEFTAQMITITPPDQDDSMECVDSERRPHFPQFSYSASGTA",
  "data": [
    {"smiles": "CC(C)=CCCC1(C)C(CC=C(C)C)CC2(CC=C(C)C)C(=O)C(CC=C(C)C)=C(O)C1(C(=O)C(C)C)C2=O", "note": "(stereo not drawn) [HF, 5-hydroxy-6R-methyl-1R,3,7S-tris(3-methyl-2-butenyl)-5S-(2-methyl-1-oxopropyl)-6R-(4-methyl-3-pentenyl)-bicyclo[3.3.1]non-3-ene-2,9 dione]", "values": [
      {"measurement": "IC50", "value": 2.5, "unit": "µM"}
    ]}
  ]
}
